Here are results for 15 molecules from patent US20070043049A1, “Substituted heterocyclic diarylamine analogues” (Neurogen Corporation, priority 2003, published 2007).

Some results are limits rather than exact numbers.

The target in this assay is T1, human capsaicin receptor (Homo sapiens, UniProt Q8NER1).
T1 construct: pBK-CMV expression construct encoding the full length human capsaicin receptor; expressed in transfected cells
T1 sequence (Q8NER1 whole entry): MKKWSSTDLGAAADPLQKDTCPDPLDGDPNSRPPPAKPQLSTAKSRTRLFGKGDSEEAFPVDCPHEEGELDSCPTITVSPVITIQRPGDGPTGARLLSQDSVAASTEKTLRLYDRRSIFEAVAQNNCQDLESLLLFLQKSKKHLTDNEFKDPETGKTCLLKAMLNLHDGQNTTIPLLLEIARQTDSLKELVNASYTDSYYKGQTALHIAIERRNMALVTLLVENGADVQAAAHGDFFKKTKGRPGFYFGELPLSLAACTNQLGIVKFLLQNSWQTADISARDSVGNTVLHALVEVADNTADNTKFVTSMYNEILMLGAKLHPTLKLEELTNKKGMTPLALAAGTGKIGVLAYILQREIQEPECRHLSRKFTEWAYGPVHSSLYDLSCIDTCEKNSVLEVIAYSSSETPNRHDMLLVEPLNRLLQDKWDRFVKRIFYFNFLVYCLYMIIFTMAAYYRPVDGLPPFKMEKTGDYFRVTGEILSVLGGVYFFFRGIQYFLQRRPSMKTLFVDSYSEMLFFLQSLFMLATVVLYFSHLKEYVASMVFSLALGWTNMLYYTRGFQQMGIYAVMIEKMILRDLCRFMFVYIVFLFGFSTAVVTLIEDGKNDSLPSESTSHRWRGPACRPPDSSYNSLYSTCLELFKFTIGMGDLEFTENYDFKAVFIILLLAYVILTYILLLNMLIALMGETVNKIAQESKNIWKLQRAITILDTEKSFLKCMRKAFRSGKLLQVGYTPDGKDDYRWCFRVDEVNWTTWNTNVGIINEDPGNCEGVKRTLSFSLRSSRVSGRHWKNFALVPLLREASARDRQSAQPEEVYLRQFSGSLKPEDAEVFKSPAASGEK
The experiment in a line: Calcium mobilization assay, determination of antagonist activity (Example 6). The conditions noted are these: 50% decrease in fluorescence response of cells expressing human capsaicin receptor exposed to capsaicin. Format: cell-based. In outline: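 HEK293 cells stably expressing full-length human capsaicin receptor, Fluo-3 AM loaded, preincubated with compound 0.5–6 h at room temperature in KRH buffer pH 7.4. Challenged with capsaicin at its EC50; FLIPR fluorescence read. IC50 is concentration halving the capsaicin-induced calcium response.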
On to `C[C@@H]1CN(c2ncccc2F)CCN1c1nc(Nc2ccc(C(F)(F)F)cc2)nc(OCc2ccccc2C(F)(F)F)n1` [Compound 10, [4-[4-(3-Fluoro-pyridin-2-yl)-2-methyl-piperazin-1-yl]-6-(2-trifluoromethyl-benzyloxy)-[1,3,5]triazin-2-yl]-(4-trifluoromethyl-phenyl)-amine (R)], for which the IC50 was not above 1000 nM.

Turning to `COc1ccc(Nc2nc(N3CCOCC3)cc(N3CCN(c4ncccc4C(F)(F)F)CC3)n2)cc1` [Compound 89, (4-Methoxy-phenyl)-{4-morpholin-4-yl-6-[4-(3-trifluoromethyl-pyridin-2-yl)-piperazin-1-yl]-pyrimidin-2-yl}-amine], the half-inhibitory concentration (IC50) was not above 1000 nM. Consider `Cc1ccc(Nc2nc(N3CCOCC3)nc(N3CCN(c4ncccc4Cl)CC3)n2)cc1` [Compound 65, {4-[4-(3-Chloro-pyridin-2-yl)-piperazin-1-yl]-6-morpholin-4-yl-[1,3,5]triazin-2-yl}-p-tolyl-amine], for which the IC50 is not above 1000 nM. In the case of `C[C@@H]1CN(c2ncccc2Cl)CCN1c1nc(Nc2ccc(F)c(F)c2)nc(N2CCOCC2)n1` [Compound 101, {4-[4-(3-Chloro-pyridin-2-yl)-2-methyl-piperazin-1-yl]-6-morpholin-4-yl-[1,3,5]triazin-2-yl}-(3,4-difluoro-phenyl)-amine (R)], the IC50 was not above 1000 nM. For `CC(C)N(C)c1nc(Nc2ccc(C(F)(F)F)cc2)nc(N2CCN(c3ncccc3Cl)C[C@H]2C)n1` [Compound 35, 6-[4-(3-Chloro-pyridin-2-yl)-2-methyl-piperazin-1-yl]-N-isopropyl-N-methyl-N′-(4-trifluoromethyl-phenyl)-[1,3,5]triazine-2,4-diamine (R)], the concentration for half-maximal inhibition (IC50) is not above 1000 nM. Turning to `CCCNc1nc(Nc2ccc(C(F)(C(F)(F)F)C(F)(F)F)cc2)nc(N2CCN(c3ncccc3Cl)C[C@H]2C)n1` [Compound 25, 6-[4-(3-Chloro-pyridin-2-yl)-2-methyl-piperazin-1-yl]-N-propyl-N′-[4-(1,2,2,2-tetrafluoro-1-trifluoromethyl-ethyl)-phenyl]-[1,3,5]triazine-2,4-diamine (R)], the IC50 is not above 1000 nM. Consider `C[C@@H]1CN(c2ncccc2C(F)(F)F)CCN1c1nc(Cl)nc(Nc2ccc(C(C)(C)C)cc2)n1` [Compound 3, (4-tert-Butyl-phenyl)-{4-chloro-6-[2-methyl-4-(3-trifluoromethyl-pyridin-2-yl)-piperazin-1-yl]-[1,3,5]triazin-2-yl}-amine (R)], for which the IC50 was not above 1000 nM. `FC(F)(F)c1ccc(Nc2nc(N3CCN(c4ncccc4Cl)CC3)nc(N3CCN(c4ncccc4Cl)CC3)n2)cc1` [Compound 56, {4,6-Bis-[4-(3-chloro-pyridin-2-yl)-piperazin-1-yl]-[1,3,5]triazin-2-yl}-(4-trifluoromethyl-phenyl)-amine]: the IC50 is not above 1000 nM.

For the molecule `CCCNc1nc(Nc2ccc(C(F)(F)F)cc2)nc(N2CCN(c3ncccc3Cl)C[C@H]2C)n1` [Compound 22, 6-[4-(3-Chloro-pyridin-2-yl)-2-methyl-piperazin-1-yl]-N-propyl-N′-(4-trifluoromethyl-phenyl)-[1,3,5]triazine-2,4-diamine (R)], the IC50 is not above 1000 nM. On to `CCCN(C)c1nc(Nc2ccc(C(F)(F)F)cc2)nc(N2CCN(c3ncccc3C(F)(F)F)CC2)n1` [Compound 48, N-Methyl-N-propyl-N′-(4-trifluoromethyl-phenyl)-6-[4-(3-trifluoromethyl-pyridin-2-yl)-piperazin-1-yl]-[1,3,5]triazine-2,4-diamine], for which the IC50 is not above 1000 nM. As to `C[C@@H]1CN(c2ncccc2Cl)CCN1c1nc(NCc2ccccc2)nc(Nc2ccc(C(F)(F)F)cc2)n1` [Compound 38, N-Benzyl-6-[4-(3-chloro-pyridin-2-yl)-2-methyl-piperazin-1-yl]-N′-(4-trifluoromethyl-phenyl)-[1,3,5]triazine-2,4-diamine (R)], the IC50 is not above 1000 nM. `CCN(CC)c1nc(Nc2ccc(F)c(F)c2)nc(N2CCN(c3ncccc3Cl)C[C@H]2C)n1` [Compound 100, 6-[4-(3-Chloro-pyridin-2-yl)-2-methyl-piperazin-1-yl]-N-(3,4-difluoro-phenyl)-N′,N′-diethyl-[1,3,5]triazine-2,4-diamine (R)]: the IC50 was not above 1000 nM. Regarding `Fc1cccc(Nc2nc(N3CCOCC3)nc(N3CCN(c4ncccc4C(F)(F)F)CC3)n2)c1` [Compound 58, (3-Fluoro-phenyl)-{4-morpholin-4-yl-6-[4-(3-trifluoromethyl-pyridin-2-yl)-piperazin-1-yl]-[1,3,5]triazin-2-yl}-amine], the IC50 is not above 1000 nM. Consider `CC(C)N(C)c1nc(Nc2ccc(C(F)(F)F)cc2)nc(N2CCN(c3ncccc3C(F)(F)F)CC2)n1` [Compound 47, N-Isopropyl-N-methyl-N′-(4-trifluoromethyl-phenyl)-6-[4-(3-trifluoromethyl-pyridin-2-yl)-piperazin-1-yl]-[1,3,5]triazine-2,4-diamine], for which the half-inhibitory concentration (IC50) is not above 1000 nM. For the molecule `Clc1cccc(Nc2nc(N3CCOCC3)nc(N3CCN(c4ncccc4Cl)CC3)n2)c1` [Compound 66, (3-Chloro-phenyl)-{4-[4-(3-chloro-pyridin-2-yl)-piperazin-1-yl]-6-morpholin-4-yl-[1,3,5]triazin-2-yl}-amine], the IC50 is not above 1000 nM.
